Measurements from ChEMBL document CHEMBL3272085, “Quantitative structure-activity relationships. 2. A mixed approach, based on Hansch and Free-Wilson Analysis” (1976).

These compounds were tested on Staphylococcus aureus (assay: Antimicrobial activity against Staphylococcus aureus).
Type: functional

Point of comparison: `CCCCCCCCCC[N+](C)(C)Cc1ccc(Cl)c(Cl)c1`, “log(1/C)” value 3.79. Against it:
- CCCCCCCCCCCCCCCCCC[N+](C)(C)Cc1ccccc1 — lower, 3.34
- CCCCCCCCCC[N+](C)(C)Cc1ccccc1 — lower, 2.79
- CCCCCCCCCCCC[N+](C)(C)Cc1ccc(Cl)cc1 — higher, 4.04
- CCCCCCCC[N+](C)(C)Cc1ccccc1Cl — lower, 2.02
- CCCCCCCCCC[N+](C)(C)Cc1ccccc1Cl — lower, 3.41
- CCCCCCCCCCCC[N+](C)(C)Cc1ccccc1Cl — higher, 4.14
- CCCCCCCCCCCCCC[N+](C)(C)Cc1ccccc1Cl — higher, 4.14
- CCCCCCCCCCCCCCCC[N+](C)(C)Cc1ccccc1Cl — within 0.2 log units, 3.74
- CCCCCCCCCCCCCCCCCC[N+](C)(C)Cc1ccccc1Cl — lower, 3.43
- CCCCCCCC[N+](C)(C)Cc1ccc(Cl)cc1 — lower, 2.6
- CCCCCCCCCC[N+](C)(C)Cc1ccc(Cl)cc1 — within 0.2 log units, 3.6
- CCCCCCCCCCCCCC[N+](C)(C)Cc1ccc(Cl)cc1 — higher, 4.34
- CCCCCCCCCCCCCCCC[N+](C)(C)Cc1ccc(Cl)cc1 — within 0.2 log units, 3.85
- CCCCCCCCCCCCCCCCCC[N+](C)(C)Cc1ccc(Cl)cc1 — lower, 3.17
- CCCCCCCC[N+](C)(C)Cc1ccc([N+](=O)[O-])cc1 — lower, 2.11
- CCCCCCCCCC[N+](C)(C)Cc1ccc([N+](=O)[O-])cc1 — lower, 3.11
- CCCCCCCCCCCC[N+](C)(C)Cc1ccc([N+](=O)[O-])cc1 — higher, 4.2
- CCCCCCCCCCCCCC[N+](C)(C)Cc1ccc([N+](=O)[O-])cc1 — higher, 4.23
- CCCCCCCCCCCCCCCC[N+](C)(C)Cc1ccc([N+](=O)[O-])cc1 — higher, 4
- CCCCCCCCCCCCCCCCCC[N+](C)(C)Cc1ccc([N+](=O)[O-])cc1 — lower, 3.46
- CCCCCCCC[N+](C)(C)Cc1ccc(Cl)cc1Cl — lower, 2.63
- CCCCCCCCCC[N+](C)(C)Cc1ccc(Cl)cc1Cl — within 0.2 log units, 3.65
- CCCCCCCCCCCC[N+](C)(C)Cc1ccc(Cl)cc1Cl — higher, 4.25
- CCCCCCCCCCCCCC[N+](C)(C)Cc1ccc(Cl)cc1Cl — higher, 4.28
- CCCCCCCCCCCCCCCC[N+](C)(C)Cc1ccc(Cl)cc1Cl — lower, 3.41
- CCCCCCCCCCCCCCCCCC[N+](C)(C)Cc1ccc(Cl)cc1Cl — lower, 3.3
- CCCCCCCC[N+](C)(C)Cc1ccc(Cl)c(Cl)c1 — lower, 2.92
- CCCCCCCCCCCC[N+](C)(C)Cc1ccc(Cl)c(Cl)c1 — higher, 4.36

Species on record: Rattus norvegicus
Experiment: Thyroxine-like activity in rat by antigoiter assay relative to control
Type: functional

Point of comparison: `Cc1cc(C[C@H](N)C(=O)O)cc(I)c1Oc1ccc(O)c(I)c1`, Activity 40%. Against it:
- Cc1cc(C[C@H](N)C(=O)O)cc(C)c1Oc1ccc(O)c(C(C)C)c1 — lower, 18%
- CC(C)c1cc(Oc2c(Br)cc(C[C@H](N)C(=O)O)cc2Br)ccc1O — higher, 450%
- N[C@@H](Cc1cc(I)c(Oc2ccc(O)cc2)c(I)c1)C(=O)O — lower, 10%
- N[C@@H](Cc1cc(I)c(Oc2ccc(O)c(O)c2)c(I)c1)C(=O)O — lower, 1.5%
- N[C@@H](Cc1cc(I)c(Oc2ccc(O)c(F)c2)c(I)c1)C(=O)O — lower, 8%
- N[C@@H](Cc1cc(I)c(Oc2ccc(O)c(Br)c2)c(I)c1)C(=O)O — higher, 138%
- Cc1cc(Oc2c(I)cc(C[C@H](N)C(=O)O)cc2I)ccc1O — higher, 126%
- CCc1cc(Oc2c(I)cc(C[C@H](N)C(=O)O)cc2I)ccc1O — higher, 506%
- CC(C)c1cc(Oc2c(I)cc(C[C@H](N)C(=O)O)cc2I)ccc1O — higher, 868%
- CC(C)(C)c1cc(Oc2c(I)cc(C[C@H](N)C(=O)O)cc2I)ccc1O — higher, 120%
- CC(C)Cc1cc(Oc2c(I)cc(C[C@H](N)C(=O)O)cc2I)ccc1O — higher, 60%
- N[C@@H](Cc1cc(I)c(Oc2ccc(O)c(-c3ccccc3)c2)c(I)c1)C(=O)O — lower, 32%
- N[C@@H](Cc1cc(I)c(Oc2cc(F)c(O)c(F)c2)c(I)c1)C(=O)O — lower, 1.8%
- N[C@@H](Cc1cc(I)c(Oc2cc(Cl)c(O)c(Cl)c2)c(I)c1)C(=O)O — lower, 0.9%
- N[C@@H](Cc1cc(I)c(Oc2cc(Br)c(O)c(Br)c2)c(I)c1)C(=O)O — lower, 10%
- N[C@@H](Cc1cc(I)c(Oc2cc(F)c(O)c(I)c2)c(I)c1)C(=O)O — lower, 28%
- N[C@@H](Cc1cc(Br)c(Oc2ccc(O)c(Br)c2)c(Br)c1)C(=O)O — higher, 44%
- N[C@@H](Cc1cc(Br)c(Oc2ccc(O)c(I)c2)c(Br)c1)C(=O)O — higher, 130%
- N[C@@H](Cc1cc(Br)c(Oc2cc(Br)c(O)c(Br)c2)c(Br)c1)C(=O)O — lower, 0.51%
- N[C@@H](Cc1cc(Br)c(Oc2cc(I)c(O)c(I)c2)c(Br)c1)C(=O)O — lower, 12.5%
- Cc1cc(C[C@H](N)C(=O)O)cc(C)c1Oc1ccc(O)c(I)c1 — lower, 5%
- Cc1cc(Oc2c(C)cc(C[C@H](N)C(=O)O)cc2C)ccc1O — lower, 3%
- Cc1cc(Oc2c(C)cc(C[C@H](N)C(=O)O)cc2C)cc(C)c1O — lower, 2%
- N[C@@H](Cc1cc(Cl)c(Oc2cc(I)c(O)c(I)c2)c(Cl)c1)C(=O)O — lower, 0.1%
- N[C@@H](Cc1cc(I)c(Oc2ccc(O)c(Cl)c2)c(I)c1)C(=O)O — lower, 27%
- N[C@@H](Cc1cc(I)c(Oc2cc(I)c(O)c(I)c2)c(I)c1)C(=O)O [LEVOTHYROXINE] — higher, 100%
- N[C@@H](Cc1cc(I)c(Oc2ccc(O)c(I)c2)c(I)c1)C(=O)O [LIOTHYRONINE] — higher, 545%

Point of comparison: `N[C@@H](Cc1cc(Br)c(Oc2ccc(O)c(I)c2)c(Br)c1)C(=O)O`, “log(activity)” value 2.11. Against it:
- Cc1cc(C[C@H](N)C(=O)O)cc(C)c1Oc1ccc(O)c(C(C)C)c1 — lower, 1.26
- CC(C)c1cc(Oc2c(Br)cc(C[C@H](N)C(=O)O)cc2Br)ccc1O — higher, 2.65
- Cc1cc(C[C@H](N)C(=O)O)cc(I)c1Oc1ccc(O)c(I)c1 — lower, 1.6
- N[C@@H](Cc1cc(I)c(Oc2ccc(O)cc2)c(I)c1)C(=O)O — lower, 1
- N[C@@H](Cc1cc(I)c(Oc2ccc(O)c(O)c2)c(I)c1)C(=O)O — lower, 0.18
- N[C@@H](Cc1cc(I)c(Oc2ccc(O)c(F)c2)c(I)c1)C(=O)O — lower, 0.9
- N[C@@H](Cc1cc(I)c(Oc2ccc(O)c(Br)c2)c(I)c1)C(=O)O — within 0.2 log units, 2.14
- Cc1cc(Oc2c(I)cc(C[C@H](N)C(=O)O)cc2I)ccc1O — within 0.2 log units, 2.1
- CCc1cc(Oc2c(I)cc(C[C@H](N)C(=O)O)cc2I)ccc1O — higher, 2.7
- CC(C)c1cc(Oc2c(I)cc(C[C@H](N)C(=O)O)cc2I)ccc1O — higher, 2.94
- CC(C)(C)c1cc(Oc2c(I)cc(C[C@H](N)C(=O)O)cc2I)ccc1O — within 0.2 log units, 2.08
- CC(C)Cc1cc(Oc2c(I)cc(C[C@H](N)C(=O)O)cc2I)ccc1O — lower, 1.78
- N[C@@H](Cc1cc(I)c(Oc2ccc(O)c(-c3ccccc3)c2)c(I)c1)C(=O)O — lower, 1.51
- N[C@@H](Cc1cc(I)c(Oc2cc(F)c(O)c(F)c2)c(I)c1)C(=O)O — lower, 0.26
- N[C@@H](Cc1cc(I)c(Oc2cc(Cl)c(O)c(Cl)c2)c(I)c1)C(=O)O — lower, -0.05
- N[C@@H](Cc1cc(I)c(Oc2cc(Br)c(O)c(Br)c2)c(I)c1)C(=O)O — lower, 1
- N[C@@H](Cc1cc(I)c(Oc2cc(F)c(O)c(I)c2)c(I)c1)C(=O)O — lower, 1.45
- N[C@@H](Cc1cc(Br)c(Oc2ccc(O)c(Br)c2)c(Br)c1)C(=O)O — lower, 1.64
- N[C@@H](Cc1cc(Br)c(Oc2cc(Br)c(O)c(Br)c2)c(Br)c1)C(=O)O — lower, -0.29
- N[C@@H](Cc1cc(Br)c(Oc2cc(I)c(O)c(I)c2)c(Br)c1)C(=O)O — lower, 1.1
- Cc1cc(C[C@H](N)C(=O)O)cc(C)c1Oc1ccc(O)c(I)c1 — lower, 0.7
- Cc1cc(Oc2c(C)cc(C[C@H](N)C(=O)O)cc2C)ccc1O — lower, 0.48
- Cc1cc(Oc2c(C)cc(C[C@H](N)C(=O)O)cc2C)cc(C)c1O — lower, 0.3
- N[C@@H](Cc1cc(Cl)c(Oc2cc(I)c(O)c(I)c2)c(Cl)c1)C(=O)O — lower, -1
- N[C@@H](Cc1cc(I)c(Oc2ccc(O)c(Cl)c2)c(I)c1)C(=O)O — lower, 1.43
- N[C@@H](Cc1cc(I)c(Oc2cc(I)c(O)c(I)c2)c(I)c1)C(=O)O [LEVOTHYROXINE] — within 0.2 log units, 2
- N[C@@H](Cc1cc(I)c(Oc2ccc(O)c(I)c2)c(I)c1)C(=O)O [LIOTHYRONINE] — higher, 2.74
